In patent publication US20150224120A1, “COMPOSITIONS AND METHODS FOR TREATING HYPERPROLINEMIA-ASSOCIATED MENTAL DISORDERS” (priority 2011, published 2015):
Entries after “also recorded” stand apart in the source; their conditions may differ. Where two headings read alike, the source gives them in different places.

Columns and labels:
PRODH expression [1] = conditions: bronchial smooth muscle cells, treated (n=3) vs untreated (n=3), p=0.01; cited from earlier work
PRODH expression [2] = assay: Peripheral PRODH expression in first-episode never-medicated SZ patients pre and post treatment (Affymetrix U133v2.0 arrays); type: in vivo, human
Excerpt: Change in log PRODH were plotted for each subject prior to-(100%), and post-treatment onset. All of the subjects received risperidone. The mean time between blood draws was 8.3 days. […] There were no significant differences in time between blood draws for those with increased PRODH (n=3), versus those with no increase (n=3, p=0.2). […] In a linear regression model, PRODH percent change was a significant predictor of total Brief Psychiatric Rating Scale (BPRS) score approximately 8 days following treatment initiation (p=0.047), after adjusting for baseline total BPRS score. Furthermore, the linear relationship between PRODH change and adjusted BPRS score was highly significant (r=−0.92, p=0.025).
Exploratory analysis of PRODH expression levels were also performed in first-episode, never-medicated SZ patients (n=6). Male, first-episode, never-medicated SZ patients were recruited at the Bellevue Hospital CPEP. A 15 ml blood sample was collected at admission to the CPEP, and peripheral PRODH expression was measured using Affymetrix U133v2.0 arrays (PRODH is one of the 54,000 transcripts). A post-treatment measurement of PRODH expression was also obtained (mean time between blood draws=8.3 days).

plasma proline [3] = conditions: previously reported (Jacquet et al., 2005); cited from earlier work
[4] = male infants receiving supplements (≦2000 IU/day) during first year of life; cited from earlier work
PRODH expression [5] = conditions: intestinal epithelial cells, treated (n=5) vs untreated control cells (n=5), p=0.044 one-tailed, cited from earlier work
plasma proline [6] = assay: Fasting plasma proline before and after oral Vitamin D supplementation; type: in vivo; conditions: oral 2000 IU daily, five fasting measurements before and five over subsequent five days, p=0.059
Excerpt: Affymetrix microarray data was accessed via the NCBI GEO database, accession numbers GDS1847 (FIG. 4A) and GDS2628 (FIG. 4B). […] Five fasting plasma proline measurements were obtained prior to the initiation of Vitamin D supplementation (2000 IU daily), after which an additional five fasting plasma measurements were obtained over the subsequent five days.
As illustrated by FIG. 4, the biologically active form of vitamin D (1α,25-dihydroxyvitamin D3 [1α,25(OH)2D3]) is also a potent regulator of PRODH expression. […] Moreover, in vivo (FIG. 4C), proline levels are decreased by treatment with oral vitamin D.

[7] = women with high vs low dietary consumption; cited from earlier work

C=C1/C(=C\C=C2/CCC[C@]3(C)[C@@H]([C@H](C)CCCC(C)(C)O)CC[C@@H]23)C[C@@H](O)C[C@@H]1O [1alpha,25-dihydroxy-vitamin-D3]
PRODH expression (probeset 214203_s_at) (PRODH expression [1]): upregulation

Cc1nc2n(c(=O)c1CCN1CCC(c3noc4cc(F)ccc34)CC1)CCCC2 [risperidone]
PRODH expression post-treatment level (mean) (PRODH expression [2]; all subjects n=6, mean 8.3 days between blood draws, pre level 6.10±0.41, p=0.3): 6.24±0.35 expression units
decrease of PRODH expression after onset of treatment (PRODH expression [2]; no-change group, n=3, non-significant, p=0.15): 2.3%
change in PRODH expression between pre and post assay (PRODH expression [2]; subset of patients (n=3), p=0.034): significantly upregulated
mean percent change (increase) of PRODH expression after onset of treatment (PRODH expression [2]; subset of subjects with increase, n=3, p=0.04): 7.3%

CCCC(CCC)C(=O)O [valproic acid]
effect on plasma proline level (plasma proline [3]): significant effect

vitamin D
risk of schizophrenia [4]: significantly reduced risk
PRODH expression (probeset 40042_r_at) (PRODH expression [5]): upregulated
PRODH expression (probeset 40042_r_at) (PRODH expression [5]; listed as vitamin D): significantly upregulates
PRODH expression (probeset 214203_s_at) (PRODH expression [1]): significantly upregulates; also recorded: upregulation
plasma proline following Vitamin D treatment (plasma proline [6]): trend for plasma proline to decrease
plasma proline following Vitamin D treatment (plasma proline [6]; listed as vitamin D): decreased
lower risk of psychosis-like symptoms [7]: 37%
